Test results: patent US10925880B2, “Combination of PI3K-inhibitors” (BAYER PHARMA AKTIENGESELLSCHAFT, priority 2016, dated 2021)
pIC50: −log10 of the molar value. Counter-ions that a name gives are not always drawn.

Tests used:
Format in all cases: cell-based
[1] = tested on: GRANTA-519; assay: 72-hour cell proliferation assay (Cell Titer Glo); conditions: GRANTA-519 (MCL), single agent; for pIC50: Homo sapiens, 72 h
Protocol: (§1) Combinations of Copanlisib and ABT-199 or Palbociclib in a Panel Cell Lines Assessed by the Combination Index (CI) of a 72-Hour Cell Proliferation Assay The effect of combinations of the present invention was evaluated using combination index isobologram analysis for in vitro assessment. The efficacy parameter was the effect in a 72-hour cell proliferation assay. Briefly, 3000 cells were plated in 384-well plates with appropriate growth medium. […] Cells were treated for 72 hours followed by assessment of cell viability by means of Cell Titer Glo assay (Promega). Experiments were conducted in duplicates. The mapping IC50 values were calculated. The corresponding component concentrations of copanlisib and ABT-199 or Palbociclib were calculated and used for plotting isobolograms. Effects were analyzed as described by Chou (Pharmacology Reviews 2006) and the combination index was calculated using the formula: Combination Index=[Ax]/A′+[Bx]/B′ [Ax] and [Bx] refer to component A and component B. A′ and B′ refer to the IC50 values of A and B, respectively, as a single agent. […] Cis of 0.9-1.1 were defined as additive effect. Cis greater than 1.1 were defined as antagonistic effects.

[2] = tested on: HAIR-M; assay: 72-hour cell proliferation assay (Cell Titer Glo); conditions: HAIR-M (MZL), single agent; for pIC50: 72 h
Protocol: as §1

[3] = tested on: ESKOL; assay: 72-hour cell proliferation assay (Cell Titer Glo); conditions: ESKOL (MZL), single agent; for pIC50: 72 h
Protocol: as §1

[4] = tested on: UPN1; assay: 72-hour cell proliferation assay (Cell Titer Glo); conditions: single agent; for pIC50: UPN1 (MCL), 72 h
Protocol: as §1

[5] = tested on: JVM-2; assay: 72-hour cell proliferation assay (Cell Titer Glo); conditions: JVM-2 (MCL), single agent; for pIC50: Homo sapiens, 72 h
Protocol: as §1

[6] = tested on: VL51; assay: 72-hour cell proliferation assay (Cell Titer Glo); conditions: VL51 (SMZL), single agent; for pIC50: Homo sapiens, 72 h
Protocol: as §1

[7] = tested on: MAVER-1; assay: 72-hour cell proliferation assay (Cell Titer Glo); conditions: MAVER-1 (MCL), single agent; for pIC50: Homo sapiens, Maver1, 72 h
Protocol: as §1

[8] = tested on: SP-49; assay: 72-hour cell proliferation assay (Cell Titer Glo); conditions: SP-49 (MCL), single agent; for pIC50: 72 h
Protocol: as §1

[9] = tested on: MINO; assay: 72-hour cell proliferation assay (Cell Titer Glo); conditions: MINO (MCL), single agent; for pIC50: Homo sapiens, 72 h
Protocol: as §1

[10] = tested on: JEKO-1; assay: 72-hour cell proliferation assay (Cell Titer Glo); conditions: JEKO-1 (MCL), single agent; for pIC50: Homo sapiens, 72 h
Protocol: as §1

[11] = tested on: SSK41; assay: 72-hour cell proliferation assay (Cell Titer Glo); conditions: SSK41 (SMZL), single agent; for pIC50: 72 h
Protocol: as §1

[12] = tested on: SP-53; assay: 72-hour cell proliferation assay (Cell Titer Glo); conditions: SP-53 (MCL), single agent; for pIC50: 72 h
Protocol: as §1

[13] = tested on: HC-1; assay: 72-hour cell proliferation assay (Cell Titer Glo); conditions: HC-1 (MZL), single agent; for pIC50: 72 h
Protocol: as §1

[14] = tested on: REC-1; assay: 72-hour cell proliferation assay (Cell Titer Glo); conditions: REC-1 (MCL), single agent; for pIC50: Homo sapiens, Rec1, 72 h
Protocol: as §1

[15] = tested on: Z-138; assay: 72-hour cell proliferation assay (Cell Titer Glo); conditions: Z-138 (MCL), single agent; for pIC50: Homo sapiens, 72 h
Protocol: as §1

[16] = tested on: KARPAS-1718; assay: 72-hour cell proliferation assay (Cell Titer Glo); conditions: KARPAS-1718 (SMZL), single agent; for pIC50: 72 h
Protocol: as §1

[17] = tested on: Mantle Cell Lymphoma (MCL), Marginal zone lymphoma (MZL) and Splenic marginal zone lymphoma (SMZL) cell lines; assay: 72-hour cell proliferation assay, summary over the cell line panel; conditions: ten MCL, three MZL and three SMZL cell lines, range over panel
Protocol: as §1

Row | Compound | pIC50 [1] | pIC50 [2] | pIC50 [3] | pIC50 [4] | pIC50 [5] | pIC50 [6] | pIC50 [7] | pIC50 [8] | pIC50 [9] | pIC50 [10] | pIC50 [11] | pIC50 [12] | pIC50 [13] | pIC50 [14] | pIC50 [15] | pIC50 [16] | other results
1 | COc1c(OCCCN2CCOCC2)ccc2c1N=C(NC(=O)c1cnc(N)nc1)N1CCN=C21 [copanlisib, 2-amino-N—[7-methoxy-8-(3-morpholin-4-ylpropoxy)-2,3-dihydroimidazo[1,2-c]quinazolin-5-yl]pyrimidine-5-carboxamide dihydrochloride] | 6.95 | 8.27 | 7.01 | 7.82 | 7.66 | 7.68 | 6.98 | 8.60 | 6.99 | 7.39 | 7.29 | 8.84 | 6.74 | 8.22 | 7.69 | 7.82 | monotherapy anti-proliferative activity [1]: moderate; monotherapy anti-proliferative activity [2]: very strong; monotherapy anti-proliferative activity [3]: strong; monotherapy anti-proliferative activity ([4]; UPN-1 (MCL)): strong; monotherapy anti-proliferative activity [5]: strong; monotherapy anti-proliferative activity [6]: strong; monotherapy anti-proliferative activity [7]: moderate; monotherapy anti-proliferative activity [8]: very strong; monotherapy anti-proliferative activity [9]: moderate; monotherapy anti-proliferative activity [10]: strong; monotherapy anti-proliferative activity [11]: strong; monotherapy anti-proliferative activity [12]: very strong; monotherapy anti-proliferative activity [13]: moderate; monotherapy anti-proliferative activity [14]: very strong; monotherapy anti-proliferative activity [15]: strong; monotherapy anti-proliferative activity [16]: strong; monotherapy anti-proliferative activity [17]: very strong to moderate
2 | CC(=O)c1c(C)c2cnc(Nc3ccc(N4CCNCC4)cn3)nc2n(C2CCCC2)c1=O [palbociclib, reference compound] | ≤ 5.00 | 5.81 | 5.68 | 5.47 | 5.25 | ≤ 5.00 | 6.33 | 6.69 | 6.24 | 6.39 | 5.64 | 7.02 | 5.64 | 5.33 | 5.89 | 5.12 | –
3 | CC1(C)CCC(CN2CCN(c3ccc(C(=O)NS(=O)(=O)c4ccc(NCC5CCOCC5)c([N+](=O)[O-])c4)c(Oc4cnc5[nH]ccc5c4)c3)CC2)=C(c2ccc(Cl)cc2)C1 [venetoclax, reference compound] | 7.75 | 6.59 | ≤ 5.00 | ≤ 5.00 | 5.24 | 5.83 | 8.73 | 5.76 | 8.89 | 5.46 | 5.21 | ≤ 5.00 | ≤ 5.00 | 7.69 | 6.00 | 8.43 | –
